Reference: US11708376B2 (VIRGINIA TECH INTELLECTUAL PROPERTIES, INC., priority 2018, dated 2023)

Key:
[1] = test system: whole cells (NMuLi, C2Cl2, and L6 cells, isolated cardiomyocytes, human primary fibroblasts); test: Oxygen consumption rate (OCR) in whole cells, Seahorse XF-24 Flux Analyzer; type: cell-based; details: cell type for Table 1 not stated, read-out: OCR Activity (increase in OCR), binned EC50
Description: Biological activities of the compounds synthesized is determined by determining increase in oxygen consumption rate (OCR).
Oxygen consumption rate (OCR) in whole cells is measured in general accordance with the method of Kenwood B M et al. (Mol. Met. (2014) 3: 114-123).
OCR is measured using a Seahorse XF-24 Flux Analyzer (Seahorse Biosciences, North Billerica, Mass.). NMuLi, C2Cl2, and L6 cells are seeded in a Seahorse 24-well tissue culture plate at a density of 3.5×10^4 cells/well, isolated cardiomyocytes at a density of 4×10^4 cells/well, and human primary fibroblasts at a density of 1.1×10^4 cells/well. The cells are then allowed to adhere for 24 h. Prior to the assay, the media is changed to unbuffered DMEM containing pyruvate and glutamine (Gibco #12800-017, pH=7.4 at 37° C.) and the cells are equilibrated for 30 mins at 37° C. Compounds are injected during the assay and OCR is measured using 2 min measurement periods.
2-3 wells are used per condition and averaged over three plates (n=6-9). Statistical significance is determined by two-way ANOVA with Bonfenoni's posttest.
Activities are reported as binned EC50 values: A=5 μM or less; B=>5 to 20 μM; C=over 20 μM; NA=no effect.

[2] = test system: Male C57BL/6J mice on western diet; test: Diet induced obesity mouse study; type: in vivo; details: WD containing 2-21, ~40 mg/kg/day
From the text: FIG. 1. Diet induced obesity reversal data, for mice given a regular chow diet, a Western diet, or a Western diet plus compound 2-21. FIG. 1A, Body mass versus time; FIG. 1B, fat mass (measured by EchoMRI) versus time; FIG. 1C, food intake (last 14 days) versus time.
Male C57BL/6J mice aged 3 months were assigned to either normal chow diet (Chow, n=5) or western diet (WD, n=10) for 28 days. After 28 days half of the WD group were switched to WD containing compound 2-21 at a concentration resulting in consumption of ˜40 mg/kg/day 1-112 (2-21 40 mpk). Body mass (A), fat mass (measured by EchoMRI (B)), and food intake (C. for the final 14 days) were recorded as indicated.

| SMILES | EC50 [1] [µM] | Body mass ([2]; after 28 days of WD) | Fat mass (measured by EchoMRI) ([2]; after 28 days of WD) | Food intake ([2]; final 14 days) |
| --- | --- | --- | --- | --- |
| COc1nc2[nH]c(C(F)(F)F)nc2nc1Nc1ccc(OC(F)(F)F)cc1F [Compound 2-21, 6-methoxy-N-(2-fluoro-4-(trifluoromethoxy)phenyl)-2-(trifluoromethyl)-1H-imidazo[4,5-b]pyrazin-5-amine] | ≤ 5 | lost body weight | lost body weight and fat mass | without a significant change in food intake |
| COc1nc2[nH]c(C(F)(F)F)nc2cc1Nc1cc(C(F)(F)F)cc(C(F)(F)F)c1 [Compound 2-72, N-(3,5-bis(trifluoromethyl)phenyl)-5-methoxy-2-(trifluoromethyl)-3H-imidazo[4,5-b]pyridin-6-amine] | 5 to 20 |  |  |  |
| COc1nc2[nH]c(C(F)(F)F)nc2cc1Nc1ccc(C)cc1 [Compound 2-73, 5-methoxy-N-(p-tolyl)-2-(trifluoromethyl)-3H-imidazo[4,5-b]pyridin-6-amine] | > 20 |  |  |  |
| COc1nc2[nH]c(C(F)(F)F)nc2cc1Nc1ccc(OC(F)(F)F)cc1C [Compound 2-74, 5-methoxy-N-(2-methyl-4-(trifluoromethoxy)phenyl)-2-(trifluoromethyl)-3H-imidazo[4,5-b]pyridin-6-amine] | ≤ 5 |  |  |  |
| COc1nc2nc(C(F)(F)F)[nH]c2cc1Nc1ccc(-c2ccc(C(F)(F)F)nc2)cc1 [Compound 2-75, 5-methoxy-2-(trifluoromethyl)-N-(4-(6-(trifluoromethyl)pyridin-3-yl)phenyl)-1H-imidazo[4,5-b]pyridin-6-amine] | 5 to 20 |  |  |  |
| Oc1nc2nc(-c3cccc(F)c3)oc2nc1Nc1ccccc1F [Compound 4-3, 2-(3-fluorophenyl)-6-((2-fluorophenyl)amino)oxazolo[4,5-b]pyrazin-5-ol] | 5 to 20 |  |  |  |
| Oc1nc2nc(-c3cccc(F)c3)oc2nc1Nc1cc(C(F)(F)F)cc(C(F)(F)F)c1 [Compound 4-5, 6-((3,5-bis(trifluoromethyl)phenyl)amino)-2-(3-fluorophenyl)oxazolo[4,5-b]pyrazin-5-ol] | 5 to 20 |  |  |  |
